# According to US6965051B2, “Process for resolution of tamsulosin and compounds, compositions, and processes associated therewith” (Synthon IP Inc., priority 2001, dated 2005):
# What was measured:
# [1] = Solubility of solid state racemic tamsulosin free base precipitates (qualitative); format: physicochemical; details: relatively pure precipitate
# Source text: The typical starting tamsulosin substrate, namely racemic tamsulosin free base in solid state, is not formed in the prior art per se. The present invention is based in part on the discovery that the racemic free base can be formed and isolated in the solid state. Preferably the solid state form is a precipitate from a solution. More preferably, the solid state form is a crystalline form. The crystalline form includes all polymorphic modifications, unless otherwise noted and includes hydrates and solvates thereof. In particular, two polymorphic forms of solid state racemic tamsulosin free base, designated as Form 1 and Form 2, have now been discovered as part of the present invention and are described hereinafter. The solid state racemic free base can be isolated in high purity, including at least 80% purity, more preferably at least 90% purity, still more preferably at least 95% purity.
# [2] = Water solubility of amine (5) observed during alkaline extraction; format: physicochemical; details: free base, normal alkaline extraction gave too high a loss
# Source text: It has now been discovered that the so obtained free base of (5) is contaminated by side-products and should be purified for the next step. […] It has been discovered that an effective way to purify the amine is to form a sulfonic acid salt of the amine, especially methane sulfonate or tosylate. The salt, particularly the methane sulfonate salt of (5), may be isolated in solid, preferably crystalline state by conventional methods and may be used as an advantageous substrate in the next reaction step. The conversion of the free base of (5) into an acid addition salt and isolation of the salt in solid state enhances the purity of the compound (5), particularly it removes side products that resulted from hydrogenation such as 2-ethoxyphenyl. The 2-(o-ethoxyphenoxy)ethylamine methane sulfonate thus forms a specific aspect of this invention.
smiles,measurement,setting,value
"CCOc1ccccc1OCCNC(C)Cc1ccc(OC)c(S(N)(=O)=O)c1 (racemic) [racemic tamsulosin free base, (R,S)-5-[2-[[2-(2-ethoxyphenoxy)ethyl]amino]propyl]-2-methoxybenzene-sulfonamide]",solubility in alcohols,[1]; alcohols such as methanol and ethanol,soluble
same,solubility in chlorinated hydrocarbons,[1]; chlorinated hydrocarbons,soluble
same,solubility in water,[1]; water,sparingly soluble
"CCOc1ccccc1OCCN [amine (5), 2-(o-ethoxyphenoxy)ethylamine]",water solubility,[2],unexpectedly high
